#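 96-well plates; 48 h exposure; 5 concentrations. Endpoints by linear interpolation between flanking doses. Not reached: highest tested concentration assigned. Abbreviation: GI50, concentration required for 50% inhibition of growth. TGI is the concentration that stops growth completely.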
# Experiments:
# Assay in all cases: NCI anticancer screen, dose series, 48 h
# RPMI-8226 leukemia = system: RPMI-8226 leukemia
# SF-268 CNS = system: SF-268 CNS
# A549 NSCLC = system: A549 NSCLC
# HS 578T breast = system: HS 578T breast
# U251 CNS = system: U251 CNS
# UACC-257 melanoma = system: UACC-257 melanoma
# IGROV1 ovarian = system: IGROV1 ovarian
# NCI-H522 lung = system: NCI-H522 lung
# SK-MEL-2 melanoma = system: SK-MEL-2 melanoma
# LOX IMVI melanoma = system: LOX IMVI melanoma
# OVCAR-5 ovarian = system: OVCAR-5 ovarian
# SF-295 CNS = system: SF-295 CNS
# HOP-62 NSCLC = system: HOP-62 NSCLC
# K-562 leukemia = system: K-562 leukemia
# SK-MEL-28 melanoma = system: SK-MEL-28 melanoma
# T-47D breast = system: T-47D breast
# HOP-92 NSCLC = system: HOP-92 NSCLC
# CCRF-CEM leukemia = system: CCRF-CEM leukemia
# A498 renal = system: A498 renal
# SF-539 CNS = system: SF-539 CNS
# HCT-116 colon = system: HCT-116 colon
# COLO 205 colon = system: COLO 205 colon
# HT29 colon = system: HT29 colon
# 786-0 renal = system: 786-0 renal
# PC-3 prostate = system: PC-3 prostate
# BT-549 breast = system: BT-549 breast
# EKVX NSCLC = system: EKVX NSCLC
# SNB-19 CNS = system: SNB-19 CNS
# NCI/ADR-RES ovarian = system: NCI/ADR-RES ovarian
# OVCAR-3 ovarian = system: OVCAR-3 ovarian
# M14 melanoma = system: M14 melanoma
# KM12 colon = system: KM12 colon
# HCT-15 colon = system: HCT-15 colon
# MOLT-4 leukemia = system: MOLT-4 leukemia
# NCI-H226 lung = system: NCI-H226 lung
# DU-145 prostate = system: DU-145 prostate
# RXF 393 renal = system: RXF 393 renal
# ACHN renal = system: ACHN renal
# SN12C renal = system: SN12C renal
# SK-OV-3 ovarian = system: SK-OV-3 ovarian
# HCC-2998 colon = system: HCC-2998 colon
# NCI-H23 lung = system: NCI-H23 lung
# OVCAR-4 ovarian = system: OVCAR-4 ovarian
# NCI-H460 lung = system: NCI-H460 lung
# MCF7 breast = system: MCF7 breast
# SK-MEL-5 melanoma = system: SK-MEL-5 melanoma
# HL-60(TB) leukemia = system: HL-60(TB) leukemia
# SR leukemia = system: SR leukemia
# UACC-62 melanoma = system: UACC-62 melanoma
# SW-620 colon = system: SW-620 colon
# MALME-3M melanoma = system: MALME-3M melanoma
# MDA-MB-435 = system: MDA-MB-435
# SNB-75 CNS = system: SNB-75 CNS
# MDA-MB-231 breast = system: MDA-MB-231 breast
# UO-31 renal = system: UO-31 renal
# OVCAR-8 ovarian = system: OVCAR-8 ovarian
smiles,measurement,setting,value
CCN1CCN(c2cc(C)nc(N(CCNc3ccnc4cc(Cl)ccc34)Cc3ccc4c(c3)OCO4)n2)CC1,GI50,RPMI-8226 leukemia,1.2 µM
same,TGI,RPMI-8226 leukemia,3.37 µM
same,GI50,SF-268 CNS,1.8 µM
same,TGI,SF-268 CNS,3.72 µM
same,GI50,A549 NSCLC,2.13 µM
same,TGI,A549 NSCLC,4.93 µM
same,GI50,HS 578T breast,1.79 µM
same,TGI,HS 578T breast,4.15 µM
same,GI50,U251 CNS,1.49 µM
same,TGI,U251 CNS,3.16 µM
same,GI50,UACC-257 melanoma,2.05 µM
same,TGI,UACC-257 melanoma,3.88 µM
same,GI50,IGROV1 ovarian,1.48 µM
same,TGI,IGROV1 ovarian,3.92 µM
same,GI50,NCI-H522 lung,1.58 µM
same,TGI,NCI-H522 lung,3.18 µM
same,GI50,SK-MEL-2 melanoma,1.63 µM
same,TGI,SK-MEL-2 melanoma,3.15 µM
same,GI50,LOX IMVI melanoma,1.5 µM
same,TGI,LOX IMVI melanoma,2.89 µM
same,GI50,OVCAR-5 ovarian,2.53 µM
same,TGI,OVCAR-5 ovarian,6.51 µM
same,GI50,SF-295 CNS,1.45 µM
same,TGI,SF-295 CNS,2.98 µM
same,GI50,HOP-62 NSCLC,1.94 µM
same,TGI,HOP-62 NSCLC,5.21 µM
same,GI50,K-562 leukemia,0.355 µM
same,TGI,K-562 leukemia,1.7 µM
same,GI50,SK-MEL-28 melanoma,1.72 µM
same,TGI,SK-MEL-28 melanoma,3.5 µM
same,GI50,T-47D breast,1.99 µM
same,TGI,T-47D breast,4.96 µM
same,GI50,HOP-92 NSCLC,1.21 µM
same,TGI,HOP-92 NSCLC,3.71 µM
same,GI50,CCRF-CEM leukemia,0.728 µM
same,TGI,CCRF-CEM leukemia,4.69 µM
same,GI50,A498 renal,1.5 µM
same,TGI,A498 renal,3.3 µM
same,GI50,SF-539 CNS,1.52 µM
same,TGI,SF-539 CNS,3.12 µM
same,GI50,HCT-116 colon,1.03 µM
same,TGI,HCT-116 colon,2.39 µM
same,GI50,COLO 205 colon,1.51 µM
same,TGI,COLO 205 colon,3.26 µM
same,GI50,HT29 colon,1.16 µM
same,TGI,HT29 colon,3.71 µM
same,GI50,786-0 renal,1.49 µM
same,TGI,786-0 renal,2.9 µM
same,GI50,PC-3 prostate,1.98 µM
same,TGI,PC-3 prostate,7 µM
same,GI50,BT-549 breast,1.54 µM
same,TGI,BT-549 breast,3.13 µM
same,GI50,EKVX NSCLC,2.33 µM
same,TGI,EKVX NSCLC,7.91 µM
same,GI50,SNB-19 CNS,2.67 µM
same,TGI,SNB-19 CNS,8.49 µM
same,GI50,NCI/ADR-RES ovarian,1.6 µM
same,TGI,NCI/ADR-RES ovarian,3.51 µM
same,GI50,OVCAR-3 ovarian,1.2 µM
same,TGI,OVCAR-3 ovarian,2.64 µM
same,GI50,M14 melanoma,1.49 µM
same,TGI,M14 melanoma,2.95 µM
same,GI50,KM12 colon,1.8 µM
same,TGI,KM12 colon,5.97 µM
same,GI50,HCT-15 colon,0.875 µM
same,TGI,HCT-15 colon,2.69 µM
same,GI50,MOLT-4 leukemia,0.728 µM
same,TGI,MOLT-4 leukemia,3.1 µM
same,GI50,NCI-H226 lung,2.43 µM
same,TGI,NCI-H226 lung,7.05 µM
same,GI50,DU-145 prostate,2.23 µM
same,TGI,DU-145 prostate,7.25 µM
same,GI50,RXF 393 renal,0.688 µM
same,TGI,RXF 393 renal,2.12 µM
same,GI50,ACHN renal,1.86 µM
same,TGI,ACHN renal,4.39 µM
same,GI50,SN12C renal,1.83 µM
same,TGI,SN12C renal,3.71 µM
same,GI50,SK-OV-3 ovarian,2.12 µM
same,TGI,SK-OV-3 ovarian,5.34 µM
same,GI50,HCC-2998 colon,2.09 µM
same,TGI,HCC-2998 colon,4.22 µM
same,GI50,NCI-H23 lung,1.88 µM
same,TGI,NCI-H23 lung,5.01 µM
same,GI50,OVCAR-4 ovarian,1.93 µM
same,TGI,OVCAR-4 ovarian,6.18 µM
same,GI50,NCI-H460 lung,1.77 µM
same,TGI,NCI-H460 lung,3.61 µM
same,GI50,MCF7 breast,1.19 µM
same,TGI,MCF7 breast,2.83 µM
same,GI50,SK-MEL-5 melanoma,1.56 µM
same,TGI,SK-MEL-5 melanoma,2.93 µM
same,GI50,HL-60(TB) leukemia,1.9 µM
same,TGI,HL-60(TB) leukemia,3.84 µM
same,GI50,SR leukemia,0.189 µM
same,TGI,SR leukemia,0.544 µM
same,GI50,UACC-62 melanoma,1.83 µM
same,TGI,UACC-62 melanoma,3.63 µM
same,GI50,SW-620 colon,1.58 µM
same,TGI,SW-620 colon,3.45 µM
same,GI50,MALME-3M melanoma,1.67 µM
same,TGI,MALME-3M melanoma,3.37 µM
same,GI50,MDA-MB-435,1.48 µM
same,TGI,MDA-MB-435,2.9 µM
same,GI50,SNB-75 CNS,1.33 µM
same,TGI,SNB-75 CNS,2.72 µM
same,GI50,MDA-MB-231 breast,1.37 µM
same,TGI,MDA-MB-231 breast,3 µM
same,GI50,UO-31 renal,1.36 µM
same,TGI,UO-31 renal,3.3 µM
same,GI50,OVCAR-8 ovarian,1.64 µM
same,TGI,OVCAR-8 ovarian,3.36 µM

# Source: PubChem BioAssay (NCI)
